Measured values from US20260306503A1, “(S)-2-HYDROXY-6-((4-(2-(2-HYDROXYETHYL)NICOTINOYL)MORPHOLIN-3-YL)METHOXY)BENZALDEHYD FOR USE IN THE TREATMENT OF SICKLE CELL DISEASE” (Global Blood Therapeutics, Inc., priority 2023, published 2026).

Target: T1, hemoglobin (Homo sapiens, UniProt P69905)
T1 construct: whole blood ex vivo
Test: Hb occupancy calculated from preliminary PK analysis of whole blood samples
Type: in vivo
Conditions: Patient A, 300 mg QD 14 days then 200 mg QD
Protocol: In some embodiments, the therapeutically effective amount is determined by measuring the percent of hemoglobin occupied by the compound, i.e., the percent Hb occupancy. The percent Hb occupancy is a measure of target engagement defined as the percentage of hemoglobin bound by a compound (e.g., Compound I) calculated as the molar concentration of the compound (e.g., Compound I) in RBCs divided by the molar concentration of hemoglobin in RBCs (the mean corpuscular hemoglobin concentration calculated from the hematology panel). The values for concentration of a compound (e.g., Compound I) in RBCs is calculated from the concentrations in whole blood and plasma, and the hematocrit.
In some embodiments, the percent hemoglobin occupancy may be calculated as described herein. In some embodiments, percent hemoglobin occupancy is the molar ratio of Compound I concentration to the Hb concentration in red blood cells.
Some newly enrolled participants in Part A will receive a loading dose regimen of 300 mg of Compound I once daily over the first 14 days. Participants will then receive 200 mg once daily maintenance doses through Week 12.
Based on preliminary pharmacokinetic (PK) analysis of whole blood samples taken from Patient A at day 15 and day 29, Hb occupancy values of 62% and 53%, respectively, were calculated.

T1 sequence (P69905 whole entry): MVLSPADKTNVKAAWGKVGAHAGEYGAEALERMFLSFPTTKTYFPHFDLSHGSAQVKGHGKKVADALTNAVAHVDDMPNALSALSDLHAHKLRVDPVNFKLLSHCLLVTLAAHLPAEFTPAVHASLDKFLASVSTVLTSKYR
T1 sequence (P68871 with tags, fused parts or gaps E7V partner): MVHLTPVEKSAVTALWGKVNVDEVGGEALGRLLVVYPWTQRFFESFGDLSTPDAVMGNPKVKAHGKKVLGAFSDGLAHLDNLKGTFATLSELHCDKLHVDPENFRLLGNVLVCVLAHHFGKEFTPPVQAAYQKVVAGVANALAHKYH

Hb occupancy (day 15, whole blood, 21600 min): 62% | Hb occupancy (day 29, whole blood, 41760 min): 53%
Structure (SMILES): O=Cc1c(O)cccc1OC[C@@H]1COCCN1C(=O)c1cccnc1CCO [Compound I, (S)-2-hydroxy-6-((4-(2-(2-hydroxyethyl)nicotinoyl)morpholin-3-yl)methoxy)benzaldehyde]
